Values of other authors in patent US6617154B1, “Electroporation chamber including an electrode having a continuous, crystalline metal nitride coating” (MaxCyte, Inc., priority 1996, dated 2003).

How the values were obtained:
[1] = under ordinary circumstances, not bound to hemoglobin
[2] = test system: mammalian erythrocyte membrane
hemoglobin [3] = molecular target: T1, hemoglobin (Homo sapiens, UniProt P68871); conditions: pH 7.4, 37 degrees C
hemoglobin [4] = molecular target: T1, hemoglobin; conditions: relative to DPG
[5] = experimental animals; DPG or its precursors

T1 sequence (P68871 2-147 limits assumed): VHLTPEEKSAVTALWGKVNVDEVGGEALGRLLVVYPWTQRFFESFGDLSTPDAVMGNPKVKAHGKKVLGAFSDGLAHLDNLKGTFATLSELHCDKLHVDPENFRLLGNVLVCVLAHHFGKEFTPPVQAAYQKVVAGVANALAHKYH
T1 sequence (P69905 2-142 partner limits assumed): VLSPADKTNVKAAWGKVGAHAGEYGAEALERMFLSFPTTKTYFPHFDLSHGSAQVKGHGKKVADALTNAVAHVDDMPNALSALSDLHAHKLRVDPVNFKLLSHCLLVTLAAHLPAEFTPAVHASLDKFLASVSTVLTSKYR

Structure (SMILES) | toxicity [1] | passage through the mammalian erythrocyte membrane [2] | P50 of hemoglobin (hemoglobin [3]) [mm Hg] | affinity to hemoglobin, higher than DPG (hemoglobin [4]) [fold] | duration of transient elevation of oxygen deposition [5] [h]
O=P(O)(O)O[C@H]1[C@H](OP(=O)(O)O)[C@@H](OP(=O)(O)O)[C@H](OP(=O)(O)O)[C@@H](OP(=O)(O)O)[C@H]1OP(=O)(O)O [IHP, inositol hexaphosphate] | toxic | unable to pass | ≤ 96.4 | 1000 | –
O=C(O)C(COP(=O)(O)O)OP(=O)(O)O (centres unmarked) [DPG, 2,3-diphosphoglycerate] | – | – | – | – | 6 to 12
